The values below come from ChEMBL document CHEMBL1130335, “Comparative molecular field analysis of a series of paclitaxel analogues” (J Med Chem, 1997).

A short description of this test: Measured activity expressed as ID50 (analogue)/ID50 (paclitaxel), where ID50 is the concentration of compound leading to 50% inhibition of the rate microtubule disassembly. Type of test: functional.

Turning to `CC(=O)O[C@@]12COC1C[C@H](O)[C@@]1(C)C(=O)[C@H](O)C3=C(C)[C@@H](OC(=O)[C@H](O)[C@@H](/C=C/c4ccccc4)NC(=O)OC(C)(C)C)C[C@@](O)([C@@H](OC(=O)c4ccccc4)[C@@H]12)C3(C)C` (stereo partly specified), the Activity was determined as 1.45.
